Results as given in patent publication US9814732B2, “Ulipristal acetate for prevention and treatment of breast tumors” (LABORATOIRE HRA-PHARMA, priority 2012, dated 2017).
One block for each molecule: values may come before it.

Key:
[1] = system: metastatic breast cancers; settings: cited from earlier work; for disease stabilization / objective response rate: 123 postmenopausal women, second or third line, mifepristone or onapristone pooled
[2] = molecular target: T1, GR (Homo sapiens, UniProt P04150); assay: GRE-Luc reporter gene transactivation in HBE cells; assay type: cell-based; settings: DEX 100 nM, test compound 100 nM, read-out: inhibition of DEX induced luciferase transactivation (GRE-Luc)
T1 sequence (P04150 1-777): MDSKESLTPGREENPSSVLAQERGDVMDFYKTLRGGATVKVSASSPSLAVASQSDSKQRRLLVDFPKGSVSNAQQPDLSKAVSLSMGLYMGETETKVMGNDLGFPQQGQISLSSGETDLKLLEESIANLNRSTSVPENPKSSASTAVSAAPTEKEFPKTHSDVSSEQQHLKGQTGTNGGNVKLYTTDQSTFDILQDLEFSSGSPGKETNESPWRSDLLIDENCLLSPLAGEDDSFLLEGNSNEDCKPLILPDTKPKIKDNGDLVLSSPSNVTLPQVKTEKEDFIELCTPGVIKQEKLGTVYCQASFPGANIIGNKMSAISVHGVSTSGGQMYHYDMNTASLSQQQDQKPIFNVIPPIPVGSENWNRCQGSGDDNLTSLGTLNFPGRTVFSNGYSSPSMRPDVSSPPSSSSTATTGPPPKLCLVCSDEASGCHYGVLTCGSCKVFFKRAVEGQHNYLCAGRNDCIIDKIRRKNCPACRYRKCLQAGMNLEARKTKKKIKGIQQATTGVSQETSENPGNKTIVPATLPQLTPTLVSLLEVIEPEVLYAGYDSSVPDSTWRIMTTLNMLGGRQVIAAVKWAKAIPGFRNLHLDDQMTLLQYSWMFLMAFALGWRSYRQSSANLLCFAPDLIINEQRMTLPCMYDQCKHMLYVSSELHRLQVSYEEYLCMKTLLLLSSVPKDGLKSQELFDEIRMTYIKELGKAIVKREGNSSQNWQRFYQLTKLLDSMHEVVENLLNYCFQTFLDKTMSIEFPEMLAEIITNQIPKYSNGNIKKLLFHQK

[3] = molecular target: T1, GR; assay: GRE-Luc reporter gene transactivation in MCF-7 cells; assay type: cell-based; design: endogenous in cells; host or cells: MCF-7; settings: MCF7, DEX 100 nM, test compound 100 nM, read-out: inhibition of DEX-induced luciferase transactivation (GRE-Luc)
[4] = system: HBCx-34 tumors; settings: model characterisation; cited from earlier work
[5] = system: hPR-A and hPR-B; assay: MMTV-Luc reporter gene transactivation in HBE cells transfected with hPR-A and/or hPR-B; assay type: cell-based, human
[6] = molecular target: T2, PR (Homo sapiens, UniProt P06401); assay: MMTV-Luc reporter gene transactivation in T-47D cells; assay type: cell-based; design: constitutively expressed high amounts of PR (progesterone receptor); endogenous in cells; host or cells: T-47D
T2 sequence (P06401 1-933): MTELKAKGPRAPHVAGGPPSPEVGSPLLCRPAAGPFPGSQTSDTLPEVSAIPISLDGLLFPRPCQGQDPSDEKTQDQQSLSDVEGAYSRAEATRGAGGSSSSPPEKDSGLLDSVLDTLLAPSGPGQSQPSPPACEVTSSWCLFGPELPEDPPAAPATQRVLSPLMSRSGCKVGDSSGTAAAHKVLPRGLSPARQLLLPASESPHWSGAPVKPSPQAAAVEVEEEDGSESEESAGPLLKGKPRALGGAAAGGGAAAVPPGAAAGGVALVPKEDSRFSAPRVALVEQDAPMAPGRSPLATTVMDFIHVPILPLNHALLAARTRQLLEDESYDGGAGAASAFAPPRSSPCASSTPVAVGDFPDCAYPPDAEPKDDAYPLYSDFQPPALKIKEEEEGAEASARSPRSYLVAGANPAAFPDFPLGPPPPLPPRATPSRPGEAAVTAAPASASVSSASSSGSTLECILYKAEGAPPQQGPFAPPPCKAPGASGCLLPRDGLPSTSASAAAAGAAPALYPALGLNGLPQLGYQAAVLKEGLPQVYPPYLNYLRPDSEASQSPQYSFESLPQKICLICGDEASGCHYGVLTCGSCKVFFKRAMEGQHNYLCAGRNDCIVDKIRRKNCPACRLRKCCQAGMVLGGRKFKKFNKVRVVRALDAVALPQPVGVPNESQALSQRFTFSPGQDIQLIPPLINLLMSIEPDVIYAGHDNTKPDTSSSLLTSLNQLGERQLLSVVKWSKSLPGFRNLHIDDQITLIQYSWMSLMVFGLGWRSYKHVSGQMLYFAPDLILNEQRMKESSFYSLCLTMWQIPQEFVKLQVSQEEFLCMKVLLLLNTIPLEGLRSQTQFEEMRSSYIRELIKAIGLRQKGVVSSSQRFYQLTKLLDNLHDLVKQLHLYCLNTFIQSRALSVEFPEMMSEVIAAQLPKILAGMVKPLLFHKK

[7] = Hormone concentrations in serum of pellet-treated athymic mice; assay type: in vivo; settings: female, NMRI nu/nu athymic, mouse, other: steroid pellets grafted onto the neck, E2 0.3 mg pellet, day 28, read-out: concentration in mice serum (mean±SEM)
Description: (§1) Four weeks old ovariectomized female NMRInu/nu 20 athymic mice were purchased from Janvier laboratory (Le Genest Saint Isle, France). Breast tissues samples were obtained from 6 women (aged 29-42 years). Human mammary gland tissue was cut into 2×2×2 mm fragments and 4 fragments were then subcutaneously xenografted onto the back of 4 mice per group. Four treatment groups were performed: control, E2, E2+P and E2+P+UPA. Treatments were administered by grafting steroid pellets onto the neck of each mouse. The experimental conditions were initially determined by using a dose range of hormones mixed with cholesterol into the pellets. Blood sample assays were performed after 2 weeks and 4 weeks of treatment to measure plasmatic hormonal concentrations. Finally, the dose of 0.3 mg for E2 and 20 mg for P and UPA were used, as it provides the expected blood concentrations. For the control groups, pellets containing only cholesterol were used. To reproduce menstrual cycle conditions, mice were grafted on the first day of experiment with cholesterol, E2 and/or UPA containing pellets and on the fourteen day with cholesterol or progesterone containing pellets in control and E2 groups, or in E+P and E2+P+UPA groups, respectively. Twenty eight days after the start of experiment, mice were sacrificed. Blood was collected for each mouse, and serum was frozen at −20° C. until hormone concentrations
Estradiol was measured by radioimmunoassay using Clinical Assays Estradiol-2 (Sorin Biomedica Diagnostics SpA, Saluggia, Italia). Progesterone levels were evaluated by UPLC-MSMS using Acquity UPLC and Quattro Premier XE (Waters, Milford Mass., USA).
UPA concentrations were measured using LC-MS/MS technique by MPI Research (State College, Pa., USA).

[8] = system: normal human breast tissues xenografts; assay: Ki67 mitotic index in normal human breast tissue xenografted in athymic mice; assay type: in vivo; settings: 28 days
From the text: Breast tissues samples were obtained from 6 women (aged 29-42 years) undergoing surgery for reduction mammoplasty, with their informed consent according to the French law on clinical experimentation.
as §1
Mitotic index was calculated using the Ki67 antibody, and was determined for each breast tissue grafted into mice. Immunohistochemical analyses were performed using the BOND-MAX workstation (Leica, Nanterre, France). Paraffin sections of breast tissue xenografts were de-waxed and rehydrated before antigen retrieval using citrate retrieval solution (pH 6.0) for Ki67 antibody or EDTA retrieval solution (pH 9.0) for PR and ERalpha antibodies, for 30 min. […]

SMILES: CN(C)c1ccc([C@H]2C[C@]3(C)[C@@H](CC[C@]3(O)CCCO)[C@@H]3CCC4=CC(=O)CCC4=C32)cc1 [onapristone]
- disease stabilization [1]: 43%
- objective response rate [1]: 11%
- side effects that stopped clinical studies [1]: liver toxic

- inhibition at 0.1 µM [2]: 18.1 ± 11.8%
- inhibition at 0.1 µM [3]: 26.5 ± 9.1%
SMILES: CNc1ccc([C@H]2C[C@@]3(C)[C@@H](CC[C@]3(OC(C)=O)C(C)=O)[C@@H]3CCC4=CC(=O)CCC4=C32)cc1 [CDB-3877]

SMILES: CC(=O)O[C@@]12CO[C@@H]1C[C@H](O)[C@@]1(C)C(=O)[C@H](O)C3=C(C)[C@@H](OC(=O)[C@H](O)[C@@H](NC(=O)OC(C)(C)C)c4ccccc4)C[C@@](O)([C@@H](OC(=O)c4ccccc4)[C@H]21)C3(C)C [docetaxel]
- responsiveness of the HBCx-34 tumor [4]: responsive

- PR antagonist response on MMTV-Luc transactivation at 1 nM ([6]; P 100 nM, antagonist 1 nM): Partial antagonist responses
SMILES: CC#C[C@]1(O)CC[C@H]2[C@@H]3CCC4=CC(=O)CCC4=C3[C@@H](c3ccc(N(C)C)cc3)C[C@@]21C [RU-486, mifepristone]
- disease stabilization [1]: 43%
- objective response rate [1]: 11%
- side effects that stopped clinical studies [1]: anti-glucocorticoid
- inhibition of P induced MMTV-Luc transactivation ([5]; HBE cells co-transfected with hPR-A and hPR-B, P 100 nM, antagonist 1 to 1000 nM): inhibited P induced MMTV11 Luc transactivation in a dose dependent manner from 1 000 to 10 nM
- progestational agonist properties on reporter gene transcription ([5]; HBE cells, compound alone): did not exhibit progestational agonist properties
- PR antagonist action on MMTV-Luc transactivation ([6]; P 100 nM, antagonist 1000 to 10 nM): potent PR antagonist actions from 1000 to 10 nM
- progestational agonist properties on reporter gene transcription ([6]; compound alone): did not exhibit progestational agonist properties

- concentration at 28 days [7]: 0.0369 ± 0.00425 ng/mL
SMILES: C[C@]12CC[C@@H]3c4ccc(O)cc4CC[C@H]3[C@@H]1CC[C@@H]2O [E2, 17β estradiol]
- proliferative activity (Ki67) in lobules ([8]; E2 treated group vs control group): slightly but not significantly increased
- mitotic index (Ki67) in ducts ([8]; E2 treated group, p<0.05): 3.1±0.7 fold induction compared to the control group

SMILES: CCCCCOC(=O)Nc1nc(=O)n([C@@H]2O[C@H](C)[C@@H](O)[C@H]2O)cc1F [capecitabine]
- responsiveness of the HBCx-34 tumor [4]: responsive
